In patent publication US20230398118A1, “METHODS OF TREATING CARDIOVASCULAR-RELATED DISEASE” (Keros Therapeutics, Inc., priority 2020, published 2023):

Assays:
Type in all cases: in vivo, human
[1] = tested on: healthy male volunteers and healthy postmenopausal female volunteers; test: Pharmacodynamics: serum cholesterol, LDL and HDL cholesterol by standard clinical laboratory tests
Source text: (§1) The primary objectives of this study were to a) evaluate safety and tolerability of escalating doses of the compound of Formula I-11 administered as single and multiple oral doses in healthy male volunteers and healthy postmenopausal female volunteers and b) evaluate the PK parameters following escalating doses of the compound of Formula I-11 administered as single and multiple oral doses. The […] secondary objective of this study was to evaluate the pharmacodynamic (PD) parameters following escalating doses of the compound of Formula I-11 administered as single and multiple oral doses. This study was conducted in two parts.
(§2) Participants in Part 1 received a single oral dose of the compound of Formula I-11 or placebo on Day 1 and serial PK samples were collected. Baseline assessments were performed on day −1 prior to dosing. Samples were collected for determination of pharmacodynamic parameters at pre-dose daily and up to 24 hours post dose (day 2) after a single oral dose of the compound of Formula I-11. Participants remained at the study site for observation for 24 hours post-dose through the PK sample collection on Day 2. Participants returned to the site for the 48, 72, and 120-hour post-dose sample collection on Days 3, 4, and 6. Safety was evaluated by a Safety Review Committee prior to escalation to the next dose level cohort.
(§3) Participants in Part 2, Cohorts 1 through 3, received a daily oral dose of the compound of Formula I-11 (50, 100, or 200 mg liquid formulation respectively) or placebo for 7 days. A daily oral dose of the compound of Formula I-11 or placebo in participants in Part 2, Cohort 4 (350 mg liquid formulation) was planned for 14 days but was discontinued early in all subjects, either by the Investigator because of AEs, or by the Sponsor. A decision was made by the Sponsor to discontinue dosing of the entire cohort based on the frequency of AEs and laboratory abnormalities after Day 9. In Cohort 4, participants on the compound of Formula I-11 received daily oral dosing of 350 mg for up to 7 days; one placebo participant received daily oral dosing for 9 days. Samples were collected for determination of pharmacodynamic parameters at pre-dose daily and to 24 hours post dose (day 8) while on drug. Daily trough PK samples were collected for the determination of steady-state from Day 2 to Day 12 or 13. Participants returned to the site on Day 30 for an end-of-study visit. Safety was evaluated by a Safety Review Committee prior to escalation to the next dose level cohort.
Pharmacodynamic endpoints: Protocol-specified endpoints were assessed at baseline and regularly throughout the study period. These assessments included serum cholesterol, LDL, and HDL cholesterol. Measurements of all pharmacodynamic end points were made using standard clinical laboratory tests.

[2] = Pharmacokinetics after single and multiple oral doses
Source text: as §1, §2
Participants in Part 2, Cohorts 1 through 3, received a daily oral dose of the compound of Formula I-11 (50, 100, or 200 mg liquid formulation respectively) or placebo for 7 days. A daily oral dose of the compound of Formula I-11 or placebo in participants in Part 2, Cohort 4 (350 mg liquid formulation) was planned for 14 days but was discontinued early in all subjects, either by the Investigator because of AEs, or by the Sponsor. A decision was made by the Sponsor to discontinue dosing of the entire cohort based on the frequency of AEs and laboratory abnormalities after Day 9. […] Safety was evaluated by a Safety Review Committee prior to escalation to the next dose level cohort. […]

[3] = tested on: healthy male volunteers and healthy postmenopausal female volunteers; test: Phase 1 safety and tolerability, single and multiple ascending oral doses
Source text: A total of 131 healthy, males aged 18 to 60 years and post-menopausal females aged 45 to 60 years, participated in this study.
as §1
Part 1 included 80 participants (10 cohorts of 8 participants each). Male and female participants who met the eligibility criteria were randomly assigned, in a ratio of 3:1 to receive the compound of Formula I-11 or matching placebo, N=6 and 2 per dose cohort, respectively. Participant enrollment included […] males and 12.5% females (postmenopausal). The IMP formulation used in Cohorts 1 through 6 was an oral capsule (doses of 1, 3, 10, 30, 100, or 300 mg capsule formulation). An oral liquid formulation was evaluated in Cohorts 7 through 10 (doses of 30, 100, 300 or 450 mg liquid formulation).
as §2
Part 2, Cohorts 1 through 4, included 41 participants (4 cohorts of 10 participants each and 1 additional placebo participant in Cohort 1). Male and female participants who met the eligibility criteria were randomly assigned at a ratio of 4:1 to receive either the compound of Formula I-11 oral liquid formulation or matching placebo, N=8 and 2 per dose cohort respectively. Forty (97.6%) males and 1 (2.4%) female (placebo) participant were enrolled.
as §3
Part 2, MAD Cohort 5 participants received either the compound of Formula I-11, 100 mg (n=8) or placebo (n=2) on Days 1, 2, 3, 4, 5, 6, 7. The last dose was administered on the morning of Day 7. […]

[4] = repeated oral administration, all MAD cohorts (1-5), Day 7

COc1cc2c(-c3cnn4cc(N5CCC(N6CCN(C)CC6)CC5)cnc34)ccnc2cc1F [Formula I-11]
decrease in LDL compared with HDL cholesterol ([1]; all MAD cohorts, Day 7): greater decreases in LDL than HDL cholesterol
total cholesterol ([1]; repeated oral administration, MAD Cohorts 1-4, across the one-week dosing period): decreases in total cholesterol
HDL cholesterol [1, 4]: decreases in HDL cholesterol
LDL cholesterol [1, 4]: decreases in LDL cholesterol
total cholesterol ([1]; single oral administration, SAD cohorts, within 24 hours): decreases in total cholesterol
half-life ([2]; both sexes, in vivo, human, oral): 10 to 15 h
Mean AUC, dose dependence ([2]; multiple doses from 50-200 mg): increased linearly with greater than dose-proportional increases
Mean Cmax, dose dependence ([2]; multiple doses from 50-200 mg): increased linearly with greater than dose-proportional increases
dose level well tolerated ([3]; after 7 daily oral doses (Part 2, MAD)): up to 200 mg
subjects with increases in ALT >2x ULN ([3]; both, human, in vivo): 3 subjects
AEs reported and higher than placebo ([3]; in vivo): headache, nausea, vomiting, diarrhea, gastroenteritis, chills, pyrexia, myalgia, decreased appetite, lymphopenia, neutropenia, and liver enzyme increases
serious adverse events ([3]; in vivo): no serious adverse events
severity of the majority of AEs ([3]; in vivo): mild or moderate in severity
participants who discontinued the study ([3]; male, human, in vivo): 3 (9.4%) participants
dose level well tolerated ([3]; single oral dose (Part 1, SAD)): up to 450 mg
